The values that follow come from patent publication US8779158B2, “Trisubstituted pyrazoles as acetylcholine receptor modulators” (Janssen Pharmaceutica NV, priority 2008, dated 2014).

The target in one assay is T1, hα7-wt nAChR (Homo sapiens, UniProt P36544).
T1 construct: expressed in transfected cells
Kind of assay: Ca2+ flux imaging (FDSS) (Protocol B), potentiation of the choline response. It is filed as cell-based. The conditions noted are these: Ca2+ assay as described in D.1; for EC50: "<5" = activity did not reach a top plateau at maximal concentration; for Emax: read-out: % Efficacy. In a few lines: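 Cells expressing hα7-wt nAChR, loaded with fluo-4AM (2 μM final) in HBSS with 10 mM HEPES, 5 mM CaCl2, 0.1% BSA and probenecid; compound (0.01–30 μM) added up to 10 min before 100 μM choline. Peak fluorescence potentiation relative to choline alone (100%); EC50 from sigmoidal curve.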

Assay [1] concerns the target T2, hα7-wt nAChR-expressing GH4C1 cells (Homo sapiens, UniProt P36544).
T2 construct: expressed in transfected cells
Kind of assay: Patch-clamp current recording (whole-cell voltage clamp), potentiation of the choline current and PAM type. In kind it is cell-based. The arrangement: key: Type 0 compounds minimally enhance the effect size of the current elicited by 1 mM choline.; Type 1 compounds enhance the effect size of the current elicited by 1 mM choline but minimally alter the kinetics of the receptor.; Type 2 compounds enhance the effect size of the current elicited by 1 mM choline while reducing the rate and/or the extent of desensitization.; Type 3 compounds enhance the effect size of the current elicited by 1 mM choline. When tested at higher concentrations up to 10 μM they completely inhibit desensitization, in particular a 1 mM choline application of 250 milliseconds.; Type 4 compounds allow for an initial desensitization of the receptor followed by a re-opening of the receptor during agonist application. The following applies: 1 mM choline. The procedure:
The compounds of the present invention are classified as type 1-4, based on qualitative kinetic properties, as determined by whole-cell voltage-clamp recordings. This classification is based on the effect of an α7 PAM compound, as described hereinbefore, on the signal elicited by an agonist application. In particular, said agonist is choline at a concentration of 1 mM. In a preferred experimental setting, said α7 PAM compound and choline are simultaneously applied to the cell, as described hereinafter. Desensitization is defined as the closure of the receptor upon activation during the application of the agonist in whole-cell voltage-clamp electrophysiology measurements seen as the reduction of the […] current after initial activation by the agonist.
The definition of the PAM types 1-4 is described hereinafter: • Type 0 compounds minimally enhance the effect size of the current elicited by 1 mM choline. • Type 1 compounds enhance the effect size of the current elicited by 1 mM choline but minimally alter the kinetics of the receptor. In particular, the rate and the extent of desensitization, elicited by the agonist, is not affected. The compound-modulated response to 1 mM choline, therefore, is a close to linear scaling of the 1 mM choline response in absence of the α7 PAM compound. • Type 2 compounds enhance the effect size of the current elicited by 1 mM choline while reducing the rate and/or the extent of desensitization. • Type 3 compounds enhance the effect size of the current elicited by 1 mM choline. […] At low-potency concentrations of the α7 PAM compound, the agonist-induced activation, which is followed by desensitization, can still be separated from the compound-induced re-opening as an initial inward current-maximum. At higher potency concentrations of the α7 PAM compound, the re-opening occurs faster than the closure due to desensitization so that the initial current-maximum disappears.
A compound was considered to have interesting PAM-like activity when the potentiation of the peak current was at least 200% compared to the control choline response (=100%). Such compounds are classified as belonging to a particular PAM type in the Experimental Part. Compounds not meeting the condition are not classified as belonging to a particular PAM-type.
The compounds also have a potentiating effect on the response to choline when measured by whole-cell patch clamp electrophysiology in GH4C1 cells stably over-expressing the human wild-type α7 receptor.
Patch-Clamp Current Recording
Patch-clamp recording from mammalian cells has provided a powerful means of assessing the function of membrane-bound proteins thought to be subunits of ligand-gated ion channels. Activation of such proteins by endogenous or exogenous ligands cause opening of a pore associated with the receptor through which ions flow down their electrochemical gradient. In the case of the hα7-wt nAChR-expressing GH4C1 recombinant cell line the preferential permeability to calcium of this receptor means that calcium flows into the cell upon activation by ACh, choline and other nicotinic ligands giving rise to a calcium current. Since this receptor rapidly desensitizes in the presence of agonist it is important an application system is used which is capable of very rapid switching of solutions (<100 ms) to prevent partial or full desensitisation of receptor responses coincident with the time of agonist application. Consequently, a second convenient technique to assess the enhancement of nicotinic efficacy is patch-clamp recording from hα7-wt nAChR-expressing GH4C1 cells coupled with a rapid-application system.
• The external recording solution consisted of 152 mM NaCl, 5 mM KCl, 1 mM MgCl2, 1 mM Calcium, 10 mM HEPES; pH 7.3. […]
(In general: Patch clamp records ionic current or voltage across a cell membrane.)

T1 sequence (P36544 23-502): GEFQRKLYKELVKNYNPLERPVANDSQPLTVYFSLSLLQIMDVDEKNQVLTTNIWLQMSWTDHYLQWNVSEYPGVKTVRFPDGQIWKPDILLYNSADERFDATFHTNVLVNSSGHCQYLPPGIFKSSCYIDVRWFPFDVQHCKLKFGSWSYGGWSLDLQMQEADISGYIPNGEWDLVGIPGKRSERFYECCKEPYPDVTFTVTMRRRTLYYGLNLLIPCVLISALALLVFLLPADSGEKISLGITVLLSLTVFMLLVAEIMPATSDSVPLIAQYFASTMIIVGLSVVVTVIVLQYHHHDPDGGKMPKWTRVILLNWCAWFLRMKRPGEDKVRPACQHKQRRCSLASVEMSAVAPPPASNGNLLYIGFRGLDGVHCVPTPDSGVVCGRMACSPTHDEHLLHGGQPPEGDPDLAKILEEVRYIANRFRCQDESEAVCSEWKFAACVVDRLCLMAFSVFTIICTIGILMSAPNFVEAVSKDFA
T2 sequence (P36544 23-502): as above

On to `CCNC(=O)Cn1nc(Nc2cc(F)c(F)c(F)c2)cc1-c1ccnc(C)c1` [compound 128], for which, on hα7-wt nAChR, the EC50 was 851 nM and the Emax came to 643%. The PAM type in assay [1] was found to be 2.

As for `CNC(=O)Cn1nc(Nc2cccc(OC(F)(F)F)c2)cc1-c1ccnc(C)c1` [compound 35], the half-maximal effective concentration (EC50) at hα7-wt nAChR is 2450 nM. In addition, the PAM type in assay [1] was found to be 2.

Consider `CC[C@H](O)Cn1nc(Nc2ccc(F)c(C(F)(F)F)c2)cc1-c1ccnc(C)c1` [compound 46], for which the EC50 on hα7-wt nAChR is 891 nM. For the same compound, the PAM type in assay [1] was 0.

With `CNC(=O)Cn1nc(Nc2cccc(C(F)(F)F)c2)cc1-c1ccnc(C)c1` [compound 32], the EC50 on hα7-wt nAChR was 4270 nM. In addition, the PAM type in assay [1] stood at 2.

Consider `COc1ccc(-c2cc(Nc3ccc(F)c(F)c3)nn2CCC(=O)N(C)C)cc1` [compound 102], for which the EC50 on hα7-wt nAChR was 77.6 nM. Also, the PAM type in assay [1] is given as 4.

As to `CC[C@H](O)Cn1nc(Nc2ccc(F)c(F)c2)cc1-c1cc(C)nc(C)c1` [compound 59], the EC50 on hα7-wt nAChR was 617 nM. Moreover, in assay [1], the PAM type was determined as 1.

On to `CCNC(=O)Cn1nc(Nc2cccc(Cl)c2F)cc1-c1cc(C)nc(C)c1` [compound 154], for which, on hα7-wt nAChR, the EC50 is 525 nM and the Emax was 901%. Further, the PAM type in assay [1] is 2.

As to `CC[C@H](O)Cn1nc(Nc2cccc(Cl)c2)cc1-c1ccnc(C)c1` [compound 185, (alphaS)-3-[(3-chlorophenyl)amino]-alpha-ethyl-5-[2-methyl-4-pyridinyl]-1H-pyrazole-1-ethanol], the EC50 at hα7-wt nAChR was 1580 nM. In assay [1], the PAM type turned out to be 1.

For `CCNC(=O)Cn1nc(Nc2cc(OC)cc(C(F)(F)F)c2)cc1-c1cc(C)nc(C)c1` [compound 140], the EC50 on hα7-wt nAChR was 1000 nM. Further, the PAM type in assay [1] came to 2.

In the case of `Cc1cc(-c2cc(Nc3cccc(OC(F)(F)F)c3)nn2CCC(=O)N(C)C)cc(C)n1` [compound 165], on hα7-wt nAChR, the concentration for a half-maximal effect (EC50) is 363 nM and the Emax was found to be 738%. The PAM type in assay [1] worked out at 1.

For `Cc1cc(-c2cc(Nc3ccc4c(c3)OC(F)(F)O4)nn2CCC(=O)N(C)C)cc(C)n1` [compound 157], on hα7-wt nAChR, the EC50 was 363 nM and the Emax stood at 503%. The PAM type in assay [1] worked out at 2.

As to `Cc1cc(-c2cc(Nc3cccc(Cl)c3)nn2CC(=O)NC2CC2)ccn1` [compound 123], the EC50 on hα7-wt nAChR is 1000 nM. Besides, in assay [1], the PAM type was 2.

Regarding `CNC(=O)Cn1nc(Nc2cccc(OC(F)(F)F)c2)cc1-c1ccc2c(c1)OCCO2` [compound 77], the EC50 on hα7-wt nAChR is 417 nM. For the same compound, in assay [1], the PAM type stood at 4.

In the case of `CCNC(=O)Cn1nc(Nc2ccc(F)c(F)c2)cc1-c1cc(C)nc(C)c1` [compound 151], at hα7-wt nAChR, the 50% effective concentration (EC50) was 550 nM and the Emax worked out at 749%. For the same compound, in assay [1], the PAM type stood at 2.

For `Cc1cc(-c2cc(Nc3cccc(Cl)c3F)nn2CCC(=O)N(C)C)cc(C)n1` [compound 173], at hα7-wt nAChR, the 50% effective concentration (EC50) was 135 nM and the Emax was 401%. Moreover, in assay [1], the PAM type is recorded as 1.

On to `Cc1cc(-c2cc(Nc3ccc(F)c(F)c3)nn2CCC(=O)N(C)C)ccn1` [compound 40], for which, on hα7-wt nAChR, the 50% effective concentration (EC50) is 1000 nM. The PAM type in assay [1] is reported as 2.

As to `COc1cc(Nc2cc(-c3ccnc(C)c3)n(CC(=O)NC3CC3)n2)cc(C(F)(F)F)c1` [compound 104], the EC50 on hα7-wt nAChR is 2690 nM. Also, in assay [1], the PAM type is 3.

`Cc1cc(-c2cc(Nc3ccc4c(c3)OC(F)(F)O4)nn2CC(=O)NC2CCC2)cc(C)n1` [compound 158]: at hα7-wt nAChR, the EC50 is 363 nM and the Emax came to 509%. In assay [1], the PAM type is listed as 1.

On to `Cc1ccnc(-c2cc(Nc3ccc(F)c(C(F)(F)F)c3)nn2CCC(=O)N(C)C)c1` [compound 23], for which the EC50 on hα7-wt nAChR was 631 nM. Besides, the PAM type in assay [1] was 2.

In the case of `COc1cccc(-c2cc(Nc3ccc(F)c(F)c3)nn2CCC(=O)N(C)C)c1` [compound 103], the EC50 on hα7-wt nAChR is 245 nM. Also, in assay [1], the PAM type turned out to be 2.

Regarding `Cc1cc(-c2cc(Nc3ccc4c(c3)OC(F)(F)O4)nn2CC(=O)NCC2CC2)ccn1` [compound 95], the EC50 on hα7-wt nAChR is 234 nM. In addition, the PAM type in assay [1] is listed as 2.

Take `CCNC(=O)Cn1nc(Nc2cccc(Cl)c2F)cc1-c1ccnc(C)c1` [compound 137]: on hα7-wt nAChR, the EC50 is 631 nM and the Emax is 946%. Also, the PAM type in assay [1] is recorded as 2.

As for `COc1ccc(-c2cc(Nc3ccc(F)c(F)c3)nn2CCC(=O)N(C)C)c(Cl)c1` [compound 12], the EC50 on hα7-wt nAChR was 661 nM. Also, the PAM type in assay [1] came to 0.

Consider `CCNC(=O)Cn1nc(Nc2cccc(Cl)c2)cc1-c1ccnc(C)c1` [compound 111], for which, at hα7-wt nAChR, the EC50 was 1700 nM. Moreover, the PAM type in assay [1] stood at 2.

Take `Cc1cc(-c2cc(Nc3cccc(Cl)c3)nn2CCC(=O)N(C)C)ccn1` [compound 146]: the EC50 at hα7-wt nAChR is 447 nM. For the same compound, the PAM type in assay [1] stood at 2.

`CCNC(=O)Cn1nc(Nc2ccc(F)c(C(F)(F)F)c2)cc1-c1cc(C)nc(C)c1` [compound 152]: at hα7-wt nAChR, the EC50 was 468 nM and the Emax was 856%. Moreover, in assay [1], the PAM type is 2.

For the compound `CCNc1cc(-c2cc(Nc3cc(F)cc(F)c3)nn2C[C@@H](O)CC)ccn1` [compound 8, (alphaS)-3-[(3,5-difluorophenyl)amino]-alpha-ethyl-5-[2-(ethylamino)-4-pyridinyl]-1H-pyrazole-1-ethanol], at hα7-wt nAChR, the EC50 is 955 nM and the Emax was 1000%. For the same compound, the PAM type in assay [1] was 1.

With `CN(C)C(=O)CCn1nc(Nc2ccc(F)c(F)c2)cc1-c1ccncc1` [compound 21], the EC50 on hα7-wt nAChR is 1230 nM. Further, the PAM type in assay [1] came to 3.

On to `CCNc1cc(-c2cc(Nc3ccc(F)c(F)c3F)nn2C[C@@H](O)CC)ccn1` [compound 135], for which the EC50 on hα7-wt nAChR was 759 nM. In addition, the PAM type in assay [1] came to 1.

In the case of `Cc1ccc(-c2cc(Nc3ccc(F)c(C(F)(F)F)c3)nn2CCC(=O)N(C)C)cn1` [compound 28], on hα7-wt nAChR, the EC50 is 776 nM. Also, in assay [1], the PAM type was determined as 4.

On to `CCNC(=O)Cn1nc(Nc2ccc3c(c2)OC(F)(F)O3)cc1-c1cc(C)nc(C)c1` [compound 153], for which, on hα7-wt nAChR, the concentration for a half-maximal effect (EC50) is 417 nM and the Emax is 737%. Besides, the PAM type in assay [1] is given as 2.

Take `Cc1cc(-c2cc(Nc3ccc4c(c3)OC(F)(F)O4)nn2CCC(=O)N(C)C)ccn1` [compound 94]: the EC50 at hα7-wt nAChR is 240 nM. Also, the PAM type in assay [1] was found to be 2.

As for `CCNC(=O)Cn1nc(Nc2ccc(F)c(C(F)(F)F)c2)cc1-c1ccnc(C)c1` [compound 38], at hα7-wt nAChR, the EC50 is 575 nM. The PAM type in assay [1] came to 2.

In the case of `COCc1cc(-c2cc(Nc3ccc(F)c(F)c3)nn2CCC(=O)N(C)C)ccn1` [compound 70], the EC50 on hα7-wt nAChR was 1350 nM. Further, the PAM type in assay [1] was found to be 3.

Turning to `Cc1cc(-c2cc(Nc3cccc(Cl)c3)nn2CCC(=O)N(C)C)cc(C)n1` [compound 56], the EC50 at hα7-wt nAChR was 525 nM. In assay [1], the PAM type turned out to be 2.

As to `CC[C@H](O)Cn1nc(Nc2cc(OC)cc(C(F)(F)F)c2)cc1-c1ccnc(C)c1` [compound 183], the EC50 at hα7-wt nAChR is 794 nM. The PAM type in assay [1] was 0.

What is called EC50 is the concentration that produces a half-maximal response.
